According to patent publication US11648254B2 (Kumquat Biosciences Inc., priority 2021, dated 2023):
Like-named read-outs stand apart in the source and are kept apart here.

Tests used:
[1] = system: NCI-H1975 cells (EGFR T790M L858R); assay: EGFR-SOS cellular inhibition assay (CellTiter-Glo, 3D); type: cell-based; conditions: Homo sapiens
SOS1 = SOS1 (Homo sapiens (Human), UniProt Q07889); assay: Ras-SOS interaction assay (HTRF); type: biochemical
[2] = system: MIA PaCa-2 cells (K-Ras G12C); assay: Ras-SOS cellular growth inhibition assay (CellTiter-Glo, 3D); type: cell-based; conditions: Homo sapiens
Method in brief: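 Growth read by CellTiter-Glo luminescence about 5 days after dosing with 3-fold dilutions (9 points), added one day post-seeding. Cells: MIA PaCa-2, 3D culture on ultra-low-attachment surface, medium DMEM/Ham's F12 plus 10% FCS and 2.5% horse serum; IC50 by four-parameter fit.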

[3] = 120 h, NCI-H1975, 3D proliferation, about 5 days, read-out: Bio-Cell-Prolif-3D (H1975 IC50)
[4] = NCI-H1975, EGFR T790M L858R, read-out: IC50 in inhibiting growth of NCI-H1975 cell line
[5] = K-RasG13D utilized, read-out: IC50 inhibition of SOS
[6] = K-RasG13D, read-out: IC50 value against SOS1
[7] = MIA PaCa-2, 120 h, MIA PaCa-2, 3D proliferation, about 5 days, read-out: Bio-Cell-Prolif-3D (MiaPaca2 IC50)
[8] = MIA PaCa-2, MIA PaCa-2, read-out: IC50 in inhibiting MIA PaCa-2 cell growth

Chain of SOS1 (Q07889 564-1049): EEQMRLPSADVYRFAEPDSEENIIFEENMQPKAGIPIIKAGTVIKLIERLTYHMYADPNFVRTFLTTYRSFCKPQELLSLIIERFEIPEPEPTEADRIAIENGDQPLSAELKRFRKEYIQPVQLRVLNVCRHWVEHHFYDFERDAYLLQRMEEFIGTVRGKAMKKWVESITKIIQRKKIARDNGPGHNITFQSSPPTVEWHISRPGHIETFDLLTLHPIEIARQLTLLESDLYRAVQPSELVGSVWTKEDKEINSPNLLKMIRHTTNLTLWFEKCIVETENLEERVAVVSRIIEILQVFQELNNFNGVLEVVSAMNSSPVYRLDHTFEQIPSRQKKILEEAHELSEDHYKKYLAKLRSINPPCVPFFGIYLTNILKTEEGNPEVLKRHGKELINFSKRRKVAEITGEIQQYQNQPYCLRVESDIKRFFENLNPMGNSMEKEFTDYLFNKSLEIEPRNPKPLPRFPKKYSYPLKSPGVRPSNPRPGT

Compound: COc1nc2ncnc(N[C@H](C)c3cccc(C(F)(F)F)c3F)c2cc1N1CCN(C2CCOCC2)CC1 [Compound 166, (R)-N-(1-(2-fluoro-3-(trifluoromethyl)phenyl)ethyl)-7-methoxy-6-(4-(tetrahydro-2H-pyran-4-yl)piperazin-1-yl)pyrido[2,3-d]pyrimidin-4-amine]
- IC50 [1, 3]: ≤ 1000 nM
- IC50 [1, 4]: < 500 nM
- IC50 (SOS1; [5]): < 100 nM
- IC50 (SOS1; [6]): < 50 nM
- IC50 [2, 7]: ≤ 1000 nM
- IC50 [2, 8]: < 500 nM

Compound: COc1nc2nc(C)nc(N[C@H](C)c3cccc(C(F)(F)F)c3F)c2cc1C1CCN(C(=O)C2CN(C)CCO2)CC1 (stereo partly drawn) [Compound 167, (4-(4-(((R)-1-(2-fluoro-3-(trifluoromethyl)phenyl)ethyl)amino)-7-methoxy-2-methylpyrido[2,3-d]pyrimidin-6-yl)piperidin-1-yl)(4-methylmorpholin-2-yl)methanone]
- IC50 [1, 3]: ≤ 1000 nM
- IC50 (SOS1; [5]): < 100 nM
- IC50 (SOS1; [6]): < 50 nM
- IC50 [2, 7]: 1000 to 10000 nM

Compound: COc1nc2nc(C)nc(N[C@H](C)c3cccc(C(F)(F)C(C)(C)O)c3F)c2cc1N1CCS(=O)(=O)CC1 [Compound 169, (R)-4-(4-((1-(3-(1,1-difluoro-2-hydroxy-2-methylpropyl)-2-fluorophenyl)ethyl)amino)-7-methoxy-2-methylpyrido[2,3-d]pyrimidin-6-yl)thiomorpholine 1,1-dioxide]
- IC50 [1, 3]: ≤ 1000 nM
- IC50 [1, 4]: < 500 nM
- IC50 (SOS1; [5]): < 100 nM
- IC50 (SOS1; [6]): < 50 nM
- IC50 [2, 7]: ≤ 1000 nM
- IC50 [2, 8]: < 500 nM

Compound: COc1nc2nc(C)nc(N[C@H](C)c3cccc(C(F)(F)CCC4CNC4)c3F)c2cc1C1(C#N)CC1 [Compound 172, (R)-1-(4-((1-(3-(3-(azetidin-3-yl)-1,1-difluoropropyl)-2-fluorophenyl)ethyl)amino)-7-methoxy-2-methylpyrido[2,3-d]pyrimidin-6-yl)cyclopropane-1-carbonitrile]
- IC50 [1, 3]: ≤ 1000 nM
- IC50 [1, 4]: < 500 nM
- IC50 (SOS1; [5]): < 100 nM
- IC50 (SOS1; [6]): < 50 nM
- IC50 [2, 7]: 1000 to 10000 nM

Compound: COc1nc2nc(C)nc(N[C@H](C)c3cccc(C(F)(F)C(C)(C)O)c3)c2cc1C1CCS(=O)(=O)CC1 [Compound 173, (R)-4-(4-((1-(3-(1,1-difluoro-2-hydroxy-2-methylpropyl)phenyl)ethyl)amino)-7-methoxy-2-methylpyrido[2,3-d]pyrimidin-6-yl)tetrahydro-2H-thiopyran 1,1-dioxide]
- IC50 [1, 3]: ≤ 1000 nM
- IC50 [1, 4]: < 500 nM
- IC50 (SOS1; [5]): < 100 nM
- IC50 (SOS1; [6]): < 50 nM
- IC50 [2, 7]: 1000 to 10000 nM

Compound: COc1nc2nc(C)nc(N[C@H](C)c3cccc(C(F)(F)CO)c3F)c2cc1C1CCS(=O)(=O)CC1 [Compound 174, (R)-4-(4-((1-(3-(1,1-difluoro-2-hydroxyethyl)-2-fluorophenyl)ethyl)amino)-7-methoxy-2-methylpyrido[2,3-d]pyrimidin-6-yl)tetrahydro-2H-thiopyran 1,1-dioxide]
- IC50 [1, 3]: ≤ 1000 nM
- IC50 [1, 4]: < 500 nM
- IC50 (SOS1; [5]): < 100 nM
- IC50 (SOS1; [6]): < 50 nM
- IC50 [2, 7]: ≤ 1000 nM
- IC50 [2, 8]: < 500 nM

Compound: COc1nc2nc(C)nc(N[C@H](C)c3cccc(C(F)(F)CCC4CN(C(C)C)C4)c3F)c2cc1C1(C#N)CC1 [Compound 176, (R)-1-(4-((1-(3-(1,1-difluoro-3-(1-isopropylazetidin-3-yl)propyl)-2-fluorophenyl)ethyl)amino)-7-methoxy-2-methylpyrido[2,3-d]pyrimidin-6-yl)cyclopropane-1-carbonitrile]
- IC50 [1, 3]: ≤ 1000 nM
- IC50 [1, 4]: < 500 nM
- IC50 (SOS1; [5]): < 100 nM
- IC50 (SOS1; [6]): < 50 nM
- IC50 [2, 7]: ≤ 1000 nM
- IC50 [2, 8]: < 500 nM

Compound: COc1nc2nc(C)nc(N[C@H](C)c3cccc(C(F)(F)CCC4CN(C)C4)c3F)c2cc1C1(C#N)CC1 [Compound 177, (R)-1-(4-((1-(3-(1,1-difluoro-3-(1-methylazetidin-3-yl)propyl)-2-fluorophenyl)ethyl)amino)-7-methoxy-2-methylpyrido[2,3-d]pyrimidin-6-yl)cyclopropane-1-carbonitrile]
- IC50 [1, 3]: ≤ 1000 nM
- IC50 [1, 4]: < 500 nM
- IC50 (SOS1; [5]): < 100 nM
- IC50 (SOS1; [6]): < 50 nM
- IC50 [2, 7]: ≤ 1000 nM
- IC50 [2, 8]: < 500 nM
